From patent US6831083B2, “Pyrazoline derivative or tetrahydropyridazine derivative and medicinal use thereof” (Mitsui Chemicals, Inc., priority 2000, dated 2004)
Marks after values point to notes of the source that are not given here.

Assays:
rat GLT-1 = molecular target: T1, rat GLT-1 (Rattus norvegicus, UniProt P31596); assay: Activating action for glia type glutamic acid transporter (GLT-1): [3H]-glutamate intake in COS-7 cells; type: cell-based; conditions: test compound 100 μM, treated from 1 hour before [3H]-glutamate (2 μM), 3 min uptake; COS-7 cells expressing rat GLT-1; percentage relative to solvent-treated group
T1 construct: expressed in transfected cells; host or cells: COS-7 cells
T1 sequence (P31596 whole entry): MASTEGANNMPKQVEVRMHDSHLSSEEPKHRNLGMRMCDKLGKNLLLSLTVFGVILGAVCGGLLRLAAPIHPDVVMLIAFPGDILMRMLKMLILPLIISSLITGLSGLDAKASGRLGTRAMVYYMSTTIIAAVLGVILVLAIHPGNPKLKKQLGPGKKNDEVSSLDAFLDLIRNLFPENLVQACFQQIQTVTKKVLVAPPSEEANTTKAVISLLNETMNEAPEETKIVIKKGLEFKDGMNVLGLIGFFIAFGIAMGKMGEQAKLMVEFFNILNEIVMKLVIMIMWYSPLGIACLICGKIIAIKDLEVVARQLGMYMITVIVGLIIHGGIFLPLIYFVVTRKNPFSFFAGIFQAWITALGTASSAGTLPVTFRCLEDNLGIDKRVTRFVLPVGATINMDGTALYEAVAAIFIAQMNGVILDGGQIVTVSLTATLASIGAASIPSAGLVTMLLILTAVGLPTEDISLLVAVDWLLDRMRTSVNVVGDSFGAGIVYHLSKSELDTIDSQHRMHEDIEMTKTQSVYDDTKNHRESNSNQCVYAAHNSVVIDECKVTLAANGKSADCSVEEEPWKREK
Procedure: Test Example 1 Activating Action for Glia Type Glutamic Acid Transporter (GLT-1)
Activating action for GLT-1 was evaluated by a test using COS-7 cells into which rat GLT-1 had been introduced. To COS-7 cells capable of expressing GLT-1 was added a [^3H]-glutamate-containing KRH solution (200 μl, final concentration: 2 μM). 3 minutes later, the ^3H amount was measured using a scintillation counter. A test compound (100 μM) was dissolved in the KRH solution and a treatment was conducted from 1 hour before the addition of [^3H]-glutamate. The action of the test compound for intake of glutamic acid was expressed as a percentage relative to the glutamic acid intake ability of solvent-treated group.
Glutamic acid intake (%)=[test compound (dpm)/control (dpm)]×100
This test was conducted based on a method by Shimada et al. [Eur. J. Pharmacol., 386, 263-270 ([…])].

ddy mice = assay: Toxicity test in ddy mice; type: in vivo; conditions: 100 mg/kg (i. p.), 24 hours after administration
Procedure: Test Example 3 Toxicity Test
A test compound was administered into ddy mice to investigate its toxicity. The test compound was intraperitoneally administered in a dosage of 100 mg/kg; the mortality rate of the mice 24 hours after the administration was examined; and the toxicity of the test compound was evaluated from the mortality rate.

[1] = test system: rat models of middle cerebral artery obstruction; assay: Action for cerebral infarct caused by middle cerebral artery obstruction in rat; type: in vivo; conditions: male SD rats, left MCA obstruction, brain taken 24 hours after obstruction, TTC
Procedure: Test Example 2 Action for Cerebral Infarct Caused by Middle Cerebral Artery Obstruction in Rat
Preparation of rat models having middle cerebral artery obstruction was conducted according to a method of Tamura et al. [J. Cerebral Blood Flow and Metabolism, 53-60 (1981)]. Specifically, 9 to 10 week-old male SD strain rats were used and their left middle cerebral arteries were obstructed under anesthesia by […] halosen. The compound of Example 5 or 26 was used as a test compound. The compound of Example 5 was intravenously administered in a dosage of 10 mg/kg for 24 hours from right after the obstruction; and the compound of Example 26 was intraperitoneally administered in a dosage of 50 mg/kg right after the obstruction and 6 hours after the obstruction. The brain of each rat was taken out 24 hours after the obstruction of rat middle cerebral artery, was divided into 6 parts, and was dyed with TTC. The section of each dyed part was photographed, and the focus of cerebral infarct was measured using an image analyzer. The rats in control group were as well subjected to middle cerebral artery obstruction.

| Compound | Glutamic acid intake (%) (rat GLT-1) | melting point [°C] | other results |
| --- | --- | --- | --- |
| O=C(c1cccnc1)N1CCCC(c2ccccc2)=N1 [Example 1, 1-nicotinoyl-3-phenyl-1,4,5,6-tetrahydropyridazine] | 136 |  |  |
| O=C(c1cnccn1)N1CCCC(c2ccccc2)=N1 [Example 2, 1-(2-Pyrazinoyl)-3-phenyl-1,4,5,6-tetrahydropyridazine] | 126 |  |  |
| CS(=O)(=O)O.O=C(c1cccnc1)N1CCC(c2ccccc2)=N1 [Example 5, 1-nicotinoyl-3-phenyl-2-pyrazoline methanesulfonate] | 145 |  | Mortality rate (%) (ddy mice): 0%; Focus of cerebral infarct (mm^3) ([1]; 10 mg/kg intravenously for 24 hours from right after obstruction, control group 224.4 ± 71.5): 131.7 ± 51.6** mm^3 |
| O=C(c1cccnc1)N1CCC(c2ccc(F)cc2)=N1 [Example 7, 1-nicotinoyl-3-(4-fluorophenyl)-2-pyrazoline] | 143 | 128 to 130 |  |
| O=C(c1cccnc1)N1CCC(c2ccccc2F)=N1 [Example 8, 1-nicotinoyl-3-(2-fluorophenyl)-2-pyrazoline] | 134 |  |  |
| O=C(c1cccnc1)N1CCC(c2ccc(Br)cc2)=N1 [Example 9, 1-nicotinoyl-3-(4-bromophenyl)-2-pyrazoline] | 138 |  |  |
| O=C(c1cccnc1)N1CCC(c2ccc(Cl)cc2)=N1 [Example 10, 1-nicotinoyl-3-(4-chlorophenyl)-2-pyrazoline] | 135 |  |  |
| O=C(c1cccnc1)N1CCC(c2cccc(Cl)c2)=N1 [Example 11, 1-nicotinoyl-3-(3-chlorophenyl)-2-pyrazoline] | 140 | 124 to 126 |  |
| O=C(c1cccnc1)N1CCC(c2ccccc2Cl)=N1 [Example 12, 1-nicotinoyl-3-(2-chlorophenyl)-2-pyrazoline] | 134 |  |  |
| COc1ccc(C2=NN(C(=O)c3cccnc3)CC2)cc1 [Example 13, 1-nicotinoyl-3-(4-methoxyphenyl)-2-pyrazoline] | 129 | 132 to 134 |  |
| COc1ccccc1C1=NN(C(=O)c2cccnc2)CC1 [Example 14, 1-nicotinoyl-3-(2-methoxyphenyl)-2-pyrazoline] | 124 | 130 to 132 |  |
| COc1ccccc1C1=NN(C(=O)c2cccnc2)CC1C (stereo not shown) [Example 15, 1-nicotinoyl-3-(2-methoxyphenyl)-4-methyl-2-pyrazoline] | 134 | 124 to 125 |  |
| COc1ccc(C2=NN(C(=O)c3cccnc3)CC2)c(OC)c1 [Example 16, 1-nicotinoyl-3-(2,4-dimethoxyphenyl)-2-pyrazoline] | 126 | 112 to 113 |  |
| CCOc1ccc(C2=NN(C(=O)c3cccnc3)CC2)cc1 [Example 17, 1-nicotinoyl-3-(4-ethoxyphenyl)-2-pyrazoline] | 129 | 124 to 125 |  |
| CCOc1ccccc1C1=NN(C(=O)c2cccnc2)CC1 [Example 18, 1-nicotinoyl-3-(2-ethoxyphenyl)-2-pyrazoline] |  | 155 to 157 |  |
| Cc1ccc(C2=NN(C(=O)c3cccnc3)CC2)cc1 [Example 19, 1-nicotinoyl-3-(4-methylphenyl)-2-pyrazoline] | 131 | 100 to 102 |  |
| Cc1cccc(C2=NN(C(=O)c3cccnc3)CC2)c1 [Example 20, 1-nicotinoyl-3-(3-methylphenyl)-2-pyrazoline] | 134 | 99 to 100 |  |
| Cc1ccccc1C1=NN(C(=O)c2cccnc2)CC1 [Example 21, 1-nicotinoyl-3-(2-methylphenyl)-2-pyrazoline] | 129 |  |  |
| Cc1ccc(C2=NN(C(=O)c3cccnc3)CC2)c(C)c1 [Example 22, 1-nicotinoyl-3-(2,4-dimethylphenyl)-2-pyrazoline] |  | 102 to 104 |  |
| O=C(c1cccnc1)N1CCC(c2ccccc2C(F)(F)F)=N1 [Example 23, 1-nicotinoyl-3-(2-trifluoromethylphenyl)-2-pyrazoline] | 128 |  |  |
| O=C(c1cccnc1)N1CCC(c2ccc([N+](=O)[O-])cc2)=N1 [Example 24, 1-nicotinoyl-3-(4-nitrophenyl)-2-pyrazoline] | 130 | 175 to 177 |  |
| O=C(c1cccnc1)N1CCC(c2ccccc2[N+](=O)[O-])=N1 [Example 25, 1-nicotinoyl-3-(2-nitrophenyl)-2-pyrazoline] |  | 123 to 125 |  |
| O=C(c1cccnc1)N1CC2COc3ccccc3C2=N1 (stereo not shown) [Example 26, 2-nicotinoyl-3,3a-dihydro-2H,4H-[1]-benzopyrano[4,3-c]pyrazole] | 131 |  | Mortality rate (%) (ddy mice): 0%; Focus of cerebral infarct (mm^3) ([1]; 50 mg/kg intraperitoneally right after and 6 hours after obstruction, control group 188.0 ± 54.8): 135.9 ± 30.5* mm^3 |
| O=C(c1cccnc1)N1CC2COc3cc(Cl)ccc3C2=N1 (stereo not shown) [Example 31, 2-nicotinoyl-7-chloro-3,3a-dihydro-2H,4H-[1]-benzopyrano[4,3-c]pyrazole] | 125 |  |  |
| O=C(c1cnccn1)N1CC2CSc3ccccc3C2=N1 (stereo not shown) [Example 40, 2-(2-pyrazinoyl)-3,3a-dihydro-2H,4H-[1]-benzothiopyrano-[4,3-c]pyrazole] |  | 190 to 192 |  |
| O=C(c1cnccn1)N1CC2CS(=O)(=O)c3ccccc3C2=N1 (stereo not shown) [Example 42, 2-(2-pyrazinoyl)-3,3a-dihydro-2H,4H-[1]-benzothiopyrano-[4,3-c]pyrazole-S-dioxide] | 125 |  |  |
